# Source: patent US20100222269A1, “IMPROVED DERIVATIVES OF AMYLIN” (priority 2007, published 2010)
# Starred links: 1 amine or outer side, 2 acyl side, 3 side chain; linkers in the order of their positions; H or OH if unused. Positions of bridges follow the written chain, without caps; N, C: chain ends. Residues, ends and D or L forms follow the SMILES beside them. Groups on a side chain read outwards from the residue. *: point of attachment. C20 diacid = O=C(O)CCCCCCCCCCCCCCCCCCC(=O)*; C18 diacid = O=C(O)CCCCCCCCCCCCCCCCC(=O)*; γGlu = O=C(O)[C@H](CCC(=O)[*:2])N[*:1]; AEEA = NCCOCCOCC(=O)O
# Biological target: T1, Amylin 3(a) receptor (human calcitonin receptor (CTa) with RAMP-3) (Homo sapiens, UniProt O60896+P30988)
# T1 construct: expressed in transfected cells; host or cells: BHK570 (baby hamster kidney) cells, stably transfected, with CRE-luciferase reporter
# Assay: Amylin luciferase assay (CRE-luciferase reporter in BHK Amylin 3(a)//CRE-luc cells)
# Format: cell-based
# Conditions: BHK570 cells with human calcitonin receptor (CTa), RAMP-3 and CRE-luciferase reporter; 4 hours incubation; read-out: Potency luciferase assay
# How it was run: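 BHK570 cells stably expressing human calcitonin receptor (CTa), RAMP-3 and a CRE-luciferase reporter, about 20.000 cells/well, were exposed to standard or sample for 4 h at 37° C in phenol-red-free DMEM with 10% FBS and 10 mM Hepes pH 7,4. Luminescence was read after 30 min with LucLite at room temperature.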
# T1 sequence (O60896 24-148): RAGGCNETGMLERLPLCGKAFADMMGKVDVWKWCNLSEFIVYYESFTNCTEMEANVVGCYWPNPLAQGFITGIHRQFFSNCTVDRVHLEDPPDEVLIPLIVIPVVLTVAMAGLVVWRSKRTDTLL
# T1 sequence (P30988 25-474): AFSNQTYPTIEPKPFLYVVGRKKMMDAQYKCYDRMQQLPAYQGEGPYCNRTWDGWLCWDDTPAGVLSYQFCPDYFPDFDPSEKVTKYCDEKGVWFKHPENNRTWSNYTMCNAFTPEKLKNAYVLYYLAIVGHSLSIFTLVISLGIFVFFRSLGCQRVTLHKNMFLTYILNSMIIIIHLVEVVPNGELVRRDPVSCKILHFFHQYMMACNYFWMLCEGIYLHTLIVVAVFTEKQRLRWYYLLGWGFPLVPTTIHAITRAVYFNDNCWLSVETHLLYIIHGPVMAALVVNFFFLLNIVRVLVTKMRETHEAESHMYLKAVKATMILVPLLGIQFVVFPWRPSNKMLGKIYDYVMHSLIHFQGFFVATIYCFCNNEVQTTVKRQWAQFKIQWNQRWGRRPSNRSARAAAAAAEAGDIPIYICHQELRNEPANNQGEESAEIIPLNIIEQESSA
row,EC50,SMILES
1,0.04 nM,"CC(C)C[C@H](NC(=O)[C@H](CC(N)=O)NC(=O)[C@H](CCC(N)=O)NC(=O)[C@H](CO)NC(=O)[C@H](CO)NC(=O)[C@H](CCCNC(=N)N)NC(=O)[C@@H](NC(=O)[C@H](CC(C)C)NC(=O)[C@H](Cc1ccccc1)NC(=O)[C@H](CC(N)=O)NC(=O)[C@H](C)NC(=O)[C@H](CC(C)C)NC(=O)[C@H](CCCNC(=N)N)NC(=O)[C@H](CCC(N)=O)NC(=O)[C@@H](NC(=O)[C@H](C)NC(=O)[C@@H]1CSSC[C@H](NC(=O)[C@@H](N)CCCCN)C(=O)N[C@@H](CCCCNC(=O)CC[C@H](NC(=O)CCCCCCCCCCCCCCCCC(=O)O)C(=O)O)C(=O)N[C@@H]([C@@H](C)O)C(=O)N[C@@H](C)C(=O)N[C@@H]([C@@H](C)O)C(=O)N1)[C@@H](C)O)C(C)C)C(=O)NCC(=O)N1CCC[C@H]1C(=O)N[C@H](C(=O)N[C@@H](CC(C)C)C(=O)N1CCC[C@H]1C(=O)N1CCC[C@H]1C(=O)N[C@H](C(=O)N[C@@H](CC(N)=O)C(=O)N[C@H](C(=O)NCC(=O)N[C@@H](CO)C(=O)N[C@@H](CC(N)=O)C(=O)N[C@H](C(=O)N[C@@H](Cc1ccc(O)cc1)C(N)=O)[C@@H](C)O)C(C)C)[C@@H](C)O)C(C)C [Example 28, N-epsilon3-[(S)-4-Carboxy-4-(17-carboxyheptadecanoylamino)butyryl]-[Lys3,Arg18,Gln21,Leu23,Val26]-pramlintide (1-37)] (H-KCK([γGlu-C18 diacid])TATCATQRLANFLVRSSQNLGPVLPPTNVGSNTY-NH2; disulfide 2-7)"
2,0.03 nM,"CC(C)C[C@H](NC(=O)[C@H](CC(N)=O)NC(=O)[C@H](CC(N)=O)NC(=O)[C@H](CO)NC(=O)[C@H](CO)NC(=O)[C@H](CCCNC(=N)N)NC(=O)[C@@H](NC(=O)[C@H](CC(C)C)NC(=O)[C@H](Cc1ccccc1)NC(=O)[C@H](CC(N)=O)NC(=O)[C@H](C)NC(=O)[C@H](CC(C)C)NC(=O)[C@H](CCCNC(=N)N)NC(=O)[C@H](CCC(N)=O)NC(=O)[C@@H](NC(=O)[C@H](C)NC(=O)[C@@H]1CSSC[C@H](NC(=O)CC[C@H](NC(=O)CCCCCCCCCCCCCCCCC(=O)O)C(=O)O)C(=O)N[C@@H](CC(N)=O)C(=O)N[C@@H]([C@@H](C)O)C(=O)N[C@@H](C)C(=O)N[C@@H]([C@@H](C)O)C(=O)N1)[C@@H](C)O)C(C)C)C(=O)NCC(=O)N1CCC[C@H]1C(=O)N[C@H](C(=O)N[C@@H](CC(C)C)C(=O)N1CCC[C@H]1C(=O)N1CCC[C@H]1C(=O)N[C@H](C(=O)N[C@@H](CC(N)=O)C(=O)N[C@H](C(=O)NCC(=O)N[C@@H](CO)C(=O)N[C@@H](CC(N)=O)C(=O)N[C@H](C(=O)N[C@@H](Cc1ccc(O)cc1)C(N)=O)[C@@H](C)O)C(C)C)[C@@H](C)O)C(C)C [Example 16, N-alpha-[(S)-4-carboxy-4-(17-carboxyheptadecanoylamino)butyryl]-[Arg18,Leu23,Val26]-pramlintide (2-37)]"
3,0.2 nM,"CC[C@H](C)[C@H](NC(=O)[C@@H]1CCCN1C(=O)CNC(=O)[C@H](Cc1ccccc1)NC(=O)[C@H](CC(N)=O)NC(=O)[C@H](CC(N)=O)NC(=O)[C@H](CO)NC(=O)[C@H](CO)NC(=O)[C@H](Cc1c[nH]cn1)NC(=O)[C@@H](NC(=O)[C@H](CC(C)C)NC(=O)[C@H](Cc1ccccc1)NC(=O)[C@H](CC(N)=O)NC(=O)[C@H](C)NC(=O)[C@H](CC(C)C)NC(=O)[C@H](CCCNC(=N)N)NC(=O)[C@H](CCC(N)=O)NC(=O)[C@@H](NC(=O)[C@H](C)NC(=O)[C@@H]1CSSC[C@H](NC(=O)[C@H](CCCCN)NC(=O)[C@H](CCCNC(=N)N)NC(=O)CC[C@H](NC(=O)CCCCCCCCCCCCCCCCCCC(=O)O)C(=O)O)C(=O)N[C@@H](CC(N)=O)C(=O)N[C@@H]([C@@H](C)O)C(=O)N[C@@H](C)C(=O)N[C@@H]([C@@H](C)O)C(=O)N1)[C@@H](C)O)C(C)C)C(=O)N[C@@H](CC(C)C)C(=O)N1CCC[C@H]1C(=O)N1CCC[C@H]1C(=O)N[C@H](C(=O)N[C@@H](CC(N)=O)C(=O)N[C@H](C(=O)NCC(=O)N[C@@H](CO)C(=O)N[C@@H](CC(N)=O)C(=O)N[C@H](C(=O)N[C@@H](Cc1ccc(O)cc1)C(N)=O)[C@@H](C)O)C(C)C)[C@@H](C)O [Example 49, N-alpha-[(S)-4-carboxy-4-(19-carboxynonadecanoylamino)butyryl]-Arg-pramlintide (1-37)] ({C20 diacid-γGlu}-RKCNTATCATQRLANFLVHSSNNFGPILPPTNVGSNTY-NH2; disulfide 3-8; C-terminus assumed)"

# The remaining lines, values behind:
row,SMILES,EC50
1,"CC[C@H](C)[C@H](NC(=O)[C@@H]1CCCN1C(=O)CNC(=O)[C@H](Cc1ccccc1)NC(=O)[C@H](CC(N)=O)NC(=O)[C@H](CC(N)=O)NC(=O)[C@H](CO)NC(=O)[C@H](CO)NC(=O)[C@H](Cc1c[nH]cn1)NC(=O)[C@@H](NC(=O)[C@H](CC(C)C)NC(=O)[C@H](Cc1ccccc1)NC(=O)[C@H](CC(N)=O)NC(=O)[C@H](C)NC(=O)[C@H](CC(C)C)NC(=O)[C@H](CCCNC(=N)N)NC(=O)[C@H](CCC(N)=O)NC(=O)[C@@H](NC(=O)[C@H](C)NC(=O)[C@@H]1CSSC[C@H](NC(=O)CC[C@H](NC(=O)CCCCCCCCCCCCCCCCCCC(=O)O)C(=O)O)C(=O)N[C@@H](CC(N)=O)C(=O)N[C@@H]([C@@H](C)O)C(=O)N[C@@H](C)C(=O)N[C@@H]([C@@H](C)O)C(=O)N1)[C@@H](C)O)C(C)C)C(=O)N[C@@H](CC(C)C)C(=O)N1CCC[C@H]1C(=O)N1CCC[C@H]1C(=O)N[C@H](C(=O)N[C@@H](CC(N)=O)C(=O)N[C@H](C(=O)NCC(=O)N[C@@H](CO)C(=O)N[C@@H](CC(N)=O)C(=O)N[C@H](C(=O)N[C@@H](Cc1ccc(O)cc1)C(N)=O)[C@@H](C)O)C(C)C)[C@@H](C)O [Example 43, N-alpha-[(S)-4-carboxy-4-(19-carboxynonadecanoylamino)butyryl]-pramlintide (2-37)] ({C20 diacid-γGlu}-CNTATCATQRLANFLVHSSNNFGPILPPTNVGSNTY-NH2; disulfide 1-6; C-terminus assumed)",0.1 nM
2,"CC[C@H](C)[C@H](NC(=O)[C@@H]1CCCN1C(=O)CNC(=O)[C@H](Cc1ccccc1)NC(=O)[C@H](CC(N)=O)NC(=O)[C@H](CC(N)=O)NC(=O)[C@H](CO)NC(=O)[C@H](CO)NC(=O)[C@H](Cc1c[nH]cn1)NC(=O)[C@@H](NC(=O)[C@H](CC(C)C)NC(=O)[C@H](Cc1ccccc1)NC(=O)[C@H](CC(N)=O)NC(=O)[C@H](C)NC(=O)[C@H](CC(C)C)NC(=O)[C@H](CCCNC(=N)N)NC(=O)[C@H](CCC(N)=O)NC(=O)[C@@H](NC(=O)[C@H](C)NC(=O)[C@@H]1CSSC[C@H](NC(=O)[C@H](CCC(=O)O)NC(=O)[C@H](CCCNC(=N)N)NC(=O)[C@H](CCC(=O)O)NC(=O)[C@H](CCC(=O)O)NC(=O)CCCCCCCCCCCCCCCCC(=O)O)C(=O)N[C@@H](CC(N)=O)C(=O)N[C@@H]([C@@H](C)O)C(=O)N[C@@H](C)C(=O)N[C@@H]([C@@H](C)O)C(=O)N1)[C@@H](C)O)C(C)C)C(=O)N[C@@H](CC(C)C)C(=O)N1CCC[C@H]1C(=O)N1CCC[C@H]1C(=O)N[C@H](C(=O)N[C@@H](CC(N)=O)C(=O)N[C@H](C(=O)NCC(=O)N[C@@H](CO)C(=O)N[C@@H](CC(N)=O)C(=O)N[C@H](C(=O)N[C@@H](Cc1ccc(O)cc1)C(N)=O)[C@@H](C)O)C(C)C)[C@@H](C)O [Example 41, N-alpha-(17-carboxyheptadecanoyl)-Glu-Glu-Arg-[Glu1]pramlintide (1-37)] ({C18 diacid}-EERECNTATCATQRLANFLVHSSNNFGPILPPTNVGSNTY-NH2; disulfide 5-10; C-terminus assumed)",0.06 nM
3,"CC[C@H](C)[C@H](NC(=O)[C@@H]1CCCN1C(=O)CNC(=O)[C@H](Cc1ccccc1)NC(=O)[C@H](CC(N)=O)NC(=O)[C@H](CCCCNC(=O)COCCOCCNC(=O)COCCOCCNC(=O)CCCCCCCCCCCCCCCCCCC(=O)O)NC(=O)[C@H](CO)NC(=O)[C@H](CO)NC(=O)[C@H](Cc1c[nH]cn1)NC(=O)[C@@H](NC(=O)[C@H](CC(C)C)NC(=O)[C@H](Cc1ccccc1)NC(=O)[C@H](CC(N)=O)NC(=O)[C@H](C)NC(=O)[C@H](CC(C)C)NC(=O)[C@H](CCCNC(=N)N)NC(=O)[C@H](CCC(N)=O)NC(=O)[C@@H](NC(=O)[C@H](C)NC(=O)[C@@H]1CSSC[C@H](NC(=O)[C@@H](N)CCCCN)C(=O)N[C@@H](CC(N)=O)C(=O)N[C@@H]([C@@H](C)O)C(=O)N[C@@H](C)C(=O)N[C@@H]([C@@H](C)O)C(=O)N1)[C@@H](C)O)C(C)C)C(=O)N[C@@H](CC(C)C)C(=O)N1CCC[C@H]1C(=O)N1CCC[C@H]1C(=O)N[C@H](C(=O)N[C@@H](CC(N)=O)C(=O)N[C@H](C(=O)NCC(=O)N[C@@H](CO)C(=O)N[C@@H](CC(N)=O)C(=O)N[C@H](C(=O)N[C@@H](Cc1ccc(O)cc1)C(N)=O)[C@@H](C)O)C(C)C)[C@@H](C)O [Example 7, N-epsilon2′-(2-{2-[2-(2-{2-[2-(19-carboxynonadecanoylamino)ethoxy]ethoxy}acetylamino)ethoxy]ethoxy}acetyl)-[Lys21]-pramlintide (1-37)] (H-KCNTATCATQRLANFLVHSSK([AEEA-AEEA-C20 diacid])NFGPILPPTNVGSNTY-NH2; disulfide 2-7; N-terminus and C-terminus assumed)",0.1 nM
